{"source": "patent US20010018422A1", "about": "“Dolastatin 15 derivatives” (BASF Aktiengesellschaft, priority 1999, published 2001)", "key": {"[1]": {"system": "tumor cells such as the HT-29 colon carcinoma or LX-1 lung tumor", "assay": "Cytotoxicity, microculture tetrazolium assay (MTT)", "format": "cell-based", "conditions": "48 hours incubation, T/C of 50%, cell line not given", "method": "Cytotoxicity was measured using a standard methodology for adherent cell lines, such as the microculture tetrazolium assay (MTT). Details of this assay have been published (Alley, M. C. et al., Cancer Research 48: 589-601, 1988). Exponentially growing cultures of tumor cells such as the HT-29 colon carcinoma or LX-1 lung tumor were used to make microtiter plate cultures. Cells were seeded at 5000-20,000 cells per well in 96-well plates (in […] of media), and grown overnight at 37° C. Test compounds were added, in 10-fold dilutions varying from 10^−4 M to 10^−10 M. Cells were then incubated for 48 hours. To determine the number of viable cells in each well, the MTT dye was added ([…] of a 3 mg/mL solution of 3-(4,5-dimethylthiazol-2-yl)-2,5-diphenyltetrazolium bromide in saline). This mixture was incubated at 37° C. for 5 hours, and then […] of 25% SDS, pH 2, was added to each well. After an overnight incubation, the absorbance of each well at 550 nm was read using an ELISA reader. The values for the mean+/−SD of data from replicated wells were calculated, using the formula % T/C (% viable cells treated/control). The concentration of test compound which gives a T/C of 50% growth inhibition was designated as the IC50."}, "[2]": {"system": "National Cancer Institute's P388 lymphocytic leukemia (PS system) cell line", "conditions": "cited from earlier work"}, "[3]": {"conditions": "synthetic Dolastatin 15; cited from earlier work"}}}
{"molecule": "CC(C)C(NC(=O)[C@H](C(C)C)N(C)C)C(=O)N(C)[C@H](C(=O)N1CCC[C@H]1C(=O)NC1CCCC1C(=O)NCc1ccccc1)C(C)C", "note": "(stereo partly drawn) [VII-2, Me2-Val-Val-MeVal-Pro-[cis-2-aminocyclopentanecarboxylic acid]-NHBn]", "values": [{"measurement": "IC50", "setting": "[1]", "value": "> 1", "unit": "µM"}]}
{"molecule": "2-(Me2Val-Val-MeVal-Pro-NH)—C6H4—CO—CH3 [IV-1]", "values": [{"measurement": "IC50", "setting": "[1]", "value": "> 1", "unit": "µM"}]}
{"molecule": "CON(C)C(=O)c1ccccc1NC(=O)[C@@H]1CCCN1C(=O)[C@H](C(C)C)N(C)C(=O)C(NC(=O)[C@H](C(C)C)N(C)C)C(C)C", "note": "(stereo partly drawn) [Compound I-60, (2)-(Me2Val-Val-MeVal-Pro-NH)—C6H4—CON(CH3)(OCH3)]", "values": [{"measurement": "IC50", "setting": "[1]", "value": 0.4, "unit": "µM"}]}
{"molecule": "CNC(=O)c1cccc(C2CCCC2)c1NC(=O)[C@@H]1CCCN1C(=O)[C@H](C(C)C)N(C)C(=O)[C@@H](NC(=O)[C@H](C(C)C)N(C)C)C(C)C", "note": "[Compound I-7, 2-(Me2ValVal-MeVal-ProNH)-3-cyclopentanyl-C6H3C(O)NHCH3]", "values": [{"measurement": "IC50", "setting": "[1]", "value": 0.4, "unit": "µM"}]}
{"molecule": "Dolastatin 15", "values": [{"measurement": "inhibition of growth of P388 cell line", "setting": "[2]", "value": "markedly inhibits the growth"}, {"measurement": "solubility in aqueous systems", "setting": "[3]", "value": "poor solubility"}]}
